In PubChem BioAssay (NCI):
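How tested: cells in 96-well plates exposed to compound for 48 hours at five concentrations. The concentration for full growth arrest is given as TGI.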 Where a SMILES comes first, the peptide text is derived from it. The star is where a group is joined. Boc = CC(C)(C)OC(=O)*

Legend:
Assay in all cases: NCI tumour cell line growth inhibition, 48 h
MDA-N = test system: MDA-N
RPMI-8226 leukemia = test system: RPMI-8226 leukemia
BT-549 breast = test system: BT-549 breast
NCI-H522 lung = test system: NCI-H522 lung
HT29 colon = test system: HT29 colon
MALME-3M melanoma = test system: MALME-3M melanoma
UACC-62 melanoma = test system: UACC-62 melanoma
M14 melanoma = test system: M14 melanoma
TK-10 renal = test system: TK-10 renal
HOP-62 NSCLC = test system: HOP-62 NSCLC
SF-295 CNS = test system: SF-295 CNS
OVCAR-5 ovarian = test system: OVCAR-5 ovarian
T-47D breast = test system: T-47D breast
OVCAR-3 ovarian = test system: OVCAR-3 ovarian
SN12C renal = test system: SN12C renal
SW-620 colon = test system: SW-620 colon
SK-MEL-28 melanoma = test system: SK-MEL-28 melanoma
ACHN renal = test system: ACHN renal
EKVX NSCLC = test system: EKVX NSCLC

Row | Structure (SMILES) | TGI (MDA-N) [µM] | TGI (RPMI-8226 leukemia) [µM] | TGI (BT-549 breast) [µM] | TGI (NCI-H522 lung) [µM] | TGI (HT29 colon) [µM] | TGI (MALME-3M melanoma) [µM] | TGI (UACC-62 melanoma) [µM] | TGI (M14 melanoma) [µM] | TGI (TK-10 renal) [µM] | TGI (HOP-62 NSCLC) [µM] | TGI (SF-295 CNS) [µM] | TGI (OVCAR-5 ovarian) [µM] | TGI (T-47D breast) [µM] | TGI (OVCAR-3 ovarian) [µM] | TGI (SN12C renal) [µM] | TGI (SW-620 colon) [µM] | TGI (SK-MEL-28 melanoma) [µM] | TGI (ACHN renal) [µM] | TGI (EKVX NSCLC) [µM]
1 | Cc1ccc(S(=O)(=O)NN=C2C(C)CC(C(C)(C)C)CC2C)cc1 (stereo unspecified) | 40.9 | 52.8 | 35.5 | 50.2 | 32.8 | 32.6 | 93.2 | 26.9 | 65 | 31.6 | 33.1 | 31.5 | 50.7 | 31.8 | 32.7 | 40.6 | 36.6 |  | 
2 | CNC(=O)Nn1c(SC)nc2ccccc21 | > 100 | > 100 | > 100 | > 100 | > 100 | > 100 | > 100 | > 100 | > 100 | > 100 | > 100 | > 100 | > 100 |  | > 100 | > 100 | > 100 | > 100 | > 100
3 | O=C(c1ccccc1)c1ccc(N2C(=O)/C(=C/c3cccc([N+](=O)[O-])c3)N=C2c2ccccc2)c(N2C(=O)/C(=C/c3cccc([N+](=O)[O-])c3)N=C2c2ccccc2)c1 | 86.6 | > 100 | > 100 |  | > 100 |  | > 100 | > 100 | > 100 | > 100 | > 100 | > 100 | > 100 | > 100 | > 100 | > 100 | > 100 | > 100 | > 100
4 | NC(=S)Nc1c(S(N)(=O)=O)cc(S(N)(=O)=O)c(Cl)c1Cl | > 100 | > 100 | > 100 | > 100 | > 100 | > 100 | > 100 | > 100 | > 100 | > 100 | > 100 | > 100 |  | > 100 | > 100 | > 100 | > 100 |  | > 100
5 | Cc1cc(N(C)C)ccc1N=Nc1ccc2ncccc2c1 | > 100 | > 100 | > 100 | 62.8 | > 100 | > 100 | > 100 | > 100 | 76.2 |  | > 100 | > 100 | > 100 |  | > 100 | > 100 |  | > 100 | > 100
6 | COc1cc(Br)cc2c1O[C@H]1C(=O)CC3CC21CCN3C (stereo partly specified) | > 100 | 63.4 | > 100 |  | > 100 | > 100 | > 100 | > 100 |  | > 100 | > 100 | > 100 | 74 | > 100 |  | > 100 | > 100 | > 100 | > 100
7 | CC(=O)OCC(OC(C)=O)C(OC(C)=O)C(/C=N\Nc1nc2ccccc2c(=O)[nH]1)OC(C)=O (stereo unspecified) | > 100 | > 100 | > 100 |  | > 100 |  | > 100 | > 100 | > 100 | > 100 | > 100 | > 100 | > 100 | > 100 | > 100 | > 100 | > 100 | > 100 | > 100
8 | COc1cc(C2SC(N)=Nc3c2c(C)nn3C(=O)Cc2ccccc2)cc(OC)c1OC (stereo unspecified) | > 100 | > 100 | > 100 | > 100 | > 100 |  | > 100 | > 100 | > 100 | > 100 | > 100 |  | > 100 |  | > 100 | > 100 | > 100 | > 100 | > 100
9 | CCOC(=O)c1ccc(N(C)Cc2cnc3nc(N)nc(N)c3n2)cc1 | > 100 | > 100 | > 100 |  | > 100 | 51.1 | 33.8 | 97.2 | 35.4 | 54.7 | > 100 | > 100 | 79.7 | 34.9 | > 100 | > 100 | 83.8 | 20.2 | > 100
10 | CCCc1c(O)c2ccccc2[nH]c1=O | > 100 | > 100 | > 100 | > 100 | > 100 | > 100 |  |  | > 100 | > 100 | > 100 | > 100 |  | > 100 | > 100 | > 100 | > 100 | > 100 | > 100
11 | CC(=O)OC12c3ccccc3C(c3ccccc31)C1C(=O)N(c3ccccc3O)C(=O)C12 (stereo unspecified) | > 100 | > 100 | > 100 |  | > 100 | > 100 |  | > 100 | > 100 | > 100 | > 100 | > 100 | > 100 | > 100 | > 100 | > 100 | > 100 | > 100 | > 100
12 | CNC(=O)CNC(=O)C(NC(=O)CNC(=O)C1CCCN1C(=O)C(C)NC(=O)C(NC(=O)OC(C)(C)C)C(C)C)C(C)C (stereo unspecified) (Boc-VAPGVG-NHMe; configuration not given here) | > 100 | > 100 |  | > 100 | > 100 | > 100 | > 100 | > 100 | > 100 | > 100 | > 100 | > 100 | > 100 | > 100 | > 100 | > 100 | > 100 | > 100 | > 100
13 | COc1cc(S(=O)(=O)Nc2ccc(-c3csc(/N=C\c4ccccc4O)n3)cc2)ccc1Cl | > 100 | > 100 | > 100 | > 100 | > 100 | > 100 | > 100 | > 100 |  | > 100 | > 100 | > 100 | 61.2 | > 100 | > 100 | > 100 | > 100 | > 100 | > 100
14 | O=c1[nH]ncc2[nH]c(-c3ccccc3)cc12 | > 100 | > 100 | > 100 |  | > 100 | > 100 | > 100 | > 100 | > 100 | > 100 | > 100 | > 100 | > 100 | > 100 | > 100 | > 100 |  | > 100 | > 100
15 | C=CC[C@H](O)[C@@](NC(=O)OCc1ccccc1)(Sc1ccc(C)cc1)C(F)(F)F | 46.6 | 71.6 | 29.4 | 32.4 | > 100 | > 100 | > 100 | 74.4 | > 100 | 78.1 | 66.7 | 75.4 |  | 48.5 | 45.8 | > 100 | > 100 | > 100 | > 100
16 | CO[C@@H]1C[C@H]2[C@@H]3CC[C@H]([C@@H](C)COC(C)=O)[C@@]3(C)CC[C@@H]2[C@@]2(C)CC[C@H]3C[C@]312 | 35.4 | 29.9 | 27.2 | 33.2 | 19.9 | 29.4 |  | 38 |  | 31.5 | 28.3 | 23.6 | 31.1 | 27.7 | 32.1 | 27.3 | 31.9 | 30.2 | 28
17 | CCOC(=O)C(=NN(C)c1ncccc1N)C(=O)OCC | > 100 | > 100 | > 100 |  | > 100 | 59.7 | > 100 | > 100 | > 100 | > 100 | > 100 |  | 62.7 | > 100 | 64.5 | 70.3 | > 100 |  | 
18 | CC(Cc1ccc(O)cn1)(NC(=O)c1ccccc1)C(=O)O (stereo unspecified) | > 100 | > 100 | > 100 | > 100 | > 100 | > 100 | > 100 | > 100 | > 100 | > 100 | > 100 | > 100 |  | > 100 |  | > 100 | > 100 | > 100 | > 100
19 | C=CC(Br)(CBr)CCC1OC1(C)C (stereo unspecified) | 24.5 | 82 | 30.2 | 34.1 | 32.8 | 38.2 |  | 29 | 36.2 | 33.2 | 32 | 33.3 |  | 36.8 | 30.5 | 26.8 | 30.5 | 34.1 | 38.5
20 | CCOC(=O)C(=O)N=Nc1c(O)[nH]c2ccccc12 | > 100 | > 100 | > 100 | > 100 |  | > 100 | > 100 | > 100 | > 100 | > 100 | > 100 | > 100 | > 100 |  | > 100 | > 100 | > 100 | > 100 | > 100
21 | CC(=O)OC12c3ccccc3C(c3ccccc31)C1C(=O)N(Nc3ccccc3)C(=O)C12 (stereo unspecified) | > 100 | > 100 | > 100 |  | > 100 | > 100 |  | > 100 | > 100 | > 100 | > 100 | > 100 | > 100 | > 100 | > 100 | > 100 | > 100 | > 100 | > 100
22 | c1ccc(C2C3=C(c4ccccc4CC3)N3c4cc5nc6ccccc6nc5cc4NC34CCCCC24)cc1 (stereo unspecified) | > 10 | > 9.17 | > 10 |  | > 10 | > 10 | > 10 | > 10 | > 10 | > 10 | > 10 | > 10 | > 10 | > 10 | > 10 | > 10 | > 10 | > 10 | > 10
23 | CC1(C)OP(=O)(c2ccccc2)C=C1Br (stereo unspecified) | > 100 | > 100 |  | > 100 | > 100 | > 100 | > 100 | > 100 | > 100 | > 100 | > 100 | > 100 | > 100 | > 100 | > 100 | > 100 | > 100 | > 100 | > 100
24 | CC1(C)CCCCC1/C=C/C(CC(O)(C(F)(F)F)C(F)(F)F)=N\Nc1ccc([N+](=O)[O-])cc1[N+](=O)[O-] (stereo unspecified) | 11.9 | 1.27 | 1.99 | 13.1 | 11.3 | 48.3 | 13.9 | 17.2 | 15.5 | 10.7 | 9.01 | 13.1 | 2.99 | 14.5 | 31.7 | 11.4 | 18.8 | 3.17 | 
25 | Nc1ccc(-c2nnc(-c3c(Cl)c(Cl)c(Cl)c(Cl)c3-c3nc4ccc(C(=O)c5ccccc5)cc4[nH]3)o2)cc1 | 19 | 31.8 | > 100 | 47.9 | 40.8 | > 100 |  | 34.8 | 77.6 | 79.9 | 58.5 | 89 | 78.5 | 62.6 | 37.7 | > 100 | > 100 | > 100 | 87.7
26 | CCCCCCCCOP(=O)(O)OP(=O)(O)OCC1OC(n2ccc(N)nc2=O)C(O)C1O (stereo unspecified) | > 100 | > 100 | > 100 |  | > 100 | > 100 | > 100 | > 100 | > 100 | > 100 | > 100 | > 100 | > 100 | > 100 | > 100 | > 100 | > 100 | > 100 | > 100
